Laboratory results published in patent US20200237717A1, “Treatment of Staphylococcal and Enterococcal Infections Using Substituted Nitrostyrene Compounds” (Opal Biosciences Limited, priority 2017, published 2020).
Converted amounts (≈) assume the structure as drawn. Like-named read-outs stand apart in the source and are kept apart here.

Assays:
[1] = system: Mycobacterium tuberculosis; conditions: literature report; cited from earlier work
[2] = in vivo; cited from earlier work
[3] = system: many Gram-negative and most Gram-positive bacterial species as well as many fungal species; conditions: literature report; cited from earlier work
[4] = system: vanB VRE clinical isolates; experiment: BDM-I and vancomycin checkerboard assay (broth microdilution, FICI); type: cell-based, Enterococcus faecium; conditions: vancomycin combined with BDM-I at fixed concentrations, vanB VRE isolate; FICI ≤0.5 indicates synergy
mice = conditions: mouse, in vivo; cited from earlier work
chickens = conditions: in vivo; cited from earlier work
[5] = system: VSSA MRSA isolates (n = 43); experiment: MIC by BMD, MRSA isolates of VSSA phenotype; type: cell-based; conditions: Staphylococcus aureus, VSSA isolates (n = 43)
Procedure: (§1) One-hundred and three MRSA bacteraemia isolates (from Liverpool Hospital, Sydney, Australia) were selected for this study. BDM-I MICs were determined by the broth microdilution method (BMD) as described by the CLSI (Clinical Laboratory Standards Institute, Methods for Dilution Antimicrobial Susceptibility Tests for Bacteria That Grow Aerobically: Ninth Edition: Approved Standard M07-A9, CLSI, Wayne, Pa., USA, 2012) using CAMHB (Oxoid-Thermo Fisher, Hampshire, UK). BDM-I concentrations ranged from 1 to 10 mg/L in 1 mg/L increments. All isolates had previously undergone vancomycin MIC testing and hVISA/VISA characterization (van Hal, Barbagiannakos et al., 2011; van Hal, Jones et al., 2011). Statistical analysis to determine correlation between variables was completed using the Spearman's test; with P<0.05 considered significant. Calculations were completed using SPSS statistical software (version 22.0; SPSS Inc, Chicago, Ill., USA).
(§2) The BDM-I MICs for a collection of clinical MRSA isolates, with varying vancomycin susceptibilities, were determined using the BMD method.

[6] = system: MRSA isolate Sa375 (VISA); experiment: microbe, parasite or virus in culture; type: cell-based, Staphylococcus aureus; conditions: for MIC: Staphylococcus aureus
[7] = system: hVISA MRSA isolates (n = 54); experiment: MIC by BMD, MRSA isolates of hVISA phenotype; type: cell-based; conditions: Staphylococcus aureus, hVISA isolates (n = 54)
Procedure: as §1, §2

[8] = system: MRSA bacteraemia isolates; experiment: BDM-I MIC by broth microdilution (BMD), collection of clinical MRSA isolates; type: cell-based, Staphylococcus aureus; conditions: clinical MRSA isolates with varying vancomycin susceptibilities
Procedure: as §1, §2

[9] = system: VISA MRSA isolates (n = 6); experiment: MIC by BMD, MRSA isolates of VISA phenotype; type: cell-based; conditions: Staphylococcus aureus, VISA isolates (n = 6)
Procedure: as §1, §2

Plasmodium falciparum = conditions: literature report; cited from earlier work
[10] = system: VSSA MRSA isolates (n = 43); conditions: VSSA isolates (n = 43), BMD, previously determined; cited from earlier work
[11] = system: vancomycin intermediate-resistant S. aureus (VISA); conditions: MRSA isolate reported in Japan in 1997 (VISA); cited from earlier work
[12] = system: VISA MRSA isolates (n = 6); conditions: VISA isolates (n = 6), BMD, previously determined; cited from earlier work
[13] = system: hVISA MRSA isolates (n = 54); conditions: hVISA isolates (n = 54), BMD, previously determined; cited from earlier work
[14] = system: vancomycin-resistant S. aureus (VRSA) strain; conditions: first VRSA strain, United States 2002; cited from earlier work

C/C(=C\c1ccc2c(c1)OCO2)[N+](=O)[O-] [BDM-I, 3,4-methylenedioxy-β-methyl-β-nitrostyrene]
Activity against Mycobacterium tuberculosis [1]: active | Absorption from the intestinal tract [2]: poorly absorbed | Antimicrobial spectrum [3]: broadly microbicidal | Interaction with vancomycin (checkerboard, FICI) [4]: synergistic activity | Oral toxicity (mice): low oral toxicity | Oral toxicity (chickens): low oral toxicity | MIC50 ([5]; read-out: BDM-I MIC50): 1.71 µg/mL (≈ 8.25 µM) | MIC ([5]; read-out: BDM-I MIC (average)): 3.42 µg/mL (≈ 16.5 µM) | BDM-I MIC increase ([6]; Sa375, day 110 vs start, 21 out of 21 colonies): 3 µg/mL | MIC ([6]; read-out: BDM-I MIC, Sa375 before passage in BDM-I): 2 µg/mL (≈ 9.65 µM) | MIC ([6]; read-out: BDM-I MIC, Sa375 day 110 colonies (21 out of 21)): 5 µg/mL (≈ 24.1 µM) | MIC50 ([7]; read-out: BDM-I MIC50): 1.64 µg/mL (≈ 7.92 µM) | MIC ([7]; read-out: BDM-I MIC (average)): 3.28 µg/mL (≈ 15.8 µM) | BDM-I MIC (range over isolates) [8]: 2 to 5 µg/mL | MIC50 ([9]; read-out: BDM-I MIC50): 1.25 µg/mL (≈ 6.03 µM) | MIC ([9]; read-out: BDM-I MIC (average)): 2.5 µg/mL (≈ 12.1 µM) | Activity against Plasmodium falciparum (Plasmodium falciparum): active

CN[C@H](CC(C)C)C(=O)N[C@H]1C(=O)N[C@@H](CC(N)=O)C(=O)N[C@H]2C(=O)N[C@H]3C(=O)N[C@H](C(=O)N[C@H](C(=O)O)c4cc(O)cc(O)c4-c4cc3ccc4O)[C@H](O)c3ccc(c(Cl)c3)Oc3cc2cc(c3O[C@@H]2O[C@H](CO)[C@@H](O)[C@H](O)[C@H]2O[C@H]2C[C@](C)(N)[C@H](O)[C@H](C)O2)Oc2ccc(cc2Cl)[C@H]1O [Vancomycin]
Vancomycin MIC50 [10]: 0.58 µg/mL | Vancomycin MIC (average) [10]: 1.16 µg/mL | vancomycin MIC [11]: 3 to 8 µg/mL | Vancomycin MIC50 [12]: 1.1 µg/mL | Vancomycin MIC (average) [12]: 2.2 µg/mL | Vancomycin MIC50 [13]: 0.96 µg/mL | Vancomycin MIC (average) [13]: 1.92 µg/mL | MIC ([6]; read-out: Vancomycin MIC): 4 µg/mL (≈ 2.76 µM) | vancomycin MIC [14]: greater than 100 μg/mL
